In one data set the test system is Pyricularia oryzae.
Test: not given
Format: in vivo. Conditions: active compound concentration of 250 ppm; rice, protective; evaluation 7 days after inoculation.
For the molecule `CCN(C)C=Nc1cc(C)c(Oc2snc(C(C)(C)C)c2C#N)cc1C` [compound 6], the efficacy was at least 80%.

The test system of the next data set is Cochliobolus miyabeanus. In words: Cochliobolus test (rice)/protective. Conditions: active compound concentration of 250 ppm, protective, evaluation 4 days after inoculation.
Method: • Solvent: 28.5 parts by weight of acetone • Emulsifier: 1.5 parts by weight of alkylaryl polyglycol ether
One day after the treatment, the plants are inoculated with an aqueous spore suspension of Cochliobolus miyabeanus. The plants are then placed in a greenhouse at 100% relative atmospheric humidity and 25° C.
Evaluation is carried out 4 days after the inoculation.
As for `CCN(C)C=Nc1cc(C)c(Oc2snc(C(C)(C)C)c2C#N)cc1C` [compound 6], the efficacy is on record as at least 80%.

Test system in a further data set: not listed separately
In words: logP by HPLC on reversed-phase columns (C18), EEC Directive 79/831 Annex V.A8. Format: physicochemical. Conditions: pH 2.7. Here is the method:
The logP values were measured in accordance with EEC Directive 79/831 Annex V.A8 by HPLC (High Performance Liquid Chromatography) on reversed-phase columns (C18), using the method below: ^[a] The determination was carried out in the acidic range at pH 2.3 using the mobile phases 0.1% aqueous phosphoric acid and acetonitrile linear gradient from 10% acetonitrile to 95% acetonitrile. ^[b] The LC-MS determination in the acidic range was carried out at pH 2.7 using the mobile phases 0.1% aqueous formic acid and acetonitrile (comprising 0.1% formic acid) linear gradient from 10% acetonitrile to 95% acetonitrile ^[c] The LC-MS determination in the neutral range was carried out at pH 7.8 using the mobile phases 0.001 molar ammonium bicarbonate solution and acetonitrile linear gradient from 10% acetonitrile to 95% acetonitrile. Calibration was carried out using unbranched alkan-2-ones (having 3 to 16 carbon atoms) with known logP values (determination of the logP values by the retention times using linear interpolation between two successive alkanones).
Molecule `Clc1snc(-c2ccccc2)c1Cl` [4,5-dichloro-3-phenylisothiazole] returned a chromatographic logP of 4.44.

On to `Cc1cc(Oc2cc(-c3ccccc3)ns2)c(C)cc1N` [2,5-dimethyl-4-[(3-phenylisothiazol-5-yl)oxy]aniline], for which the chromatographic logP amounted to 3.6.

`CCN(C)/C=N/c1cc(C)c(Oc2snc(-c3ccccc3)c2Cl)cc1C` [No. 48, N′-{4-[(4-chloro-3-phenyl-1,2-thiazol-5-yl)oxy]-2,5-dimethylphenyl}-N-ethyl-N-methylimidoformamide]: the chromatographic logP came out at 2.25. Molecule `CCN(C)/C=N/c1cc(Cl)c(Oc2snc(-c3ccccc3)c2Br)cc1C` [No. 54, N′-{4-[(4-bromo-3-phenyl-1,2-thiazol-5-yl)oxy]-5-chloro-2-methylphenyl}-N-ethyl-N-methylimidoformamide] showed a chromatographic logP of 2.26. The molecule `Clc1cc(-c2ccccc2)ns1` [5-chloro-3-phenylisothiazole] gave a chromatographic logP of 3.82.

The molecule `Cc1cc(Oc2snc(-c3ccccc3)c2Cl)c(C)cc1N` [4-[(4-chloro-3-phenylisothiazol-5-yl)oxy]-2,5-dimethylaniline] displayed a chromatographic logP of 4.22. The same measure, in the same setting: as for `Cc1cc(Oc2snc(Cc3ccc(Cl)cc3)c2C#N)c(C)cc1N` [5-(4-amino-2,5-dimethylphenoxy)-3-(4-chlorobenzyl)isothiazole-4-carbonitrile], the figure is 4.03; as for `N#Cc1c(Cc2ccc(Cl)cc2)nsc1Cl` [5-chloro-3-(4-chlorobenzyl)isothiazole-4-carbonitrile], 3.87; as for `CCN(C)/C=N/c1cc(C)c(Oc2cc(-c3ccccc3)ns2)cc1C` [No. 43, N′-{2,5-dimethyl-4-[(3-phenyl-1,2-thiazol-5-yl)oxy]phenyl}-N-ethyl-N-methylimidoformamide], 2.11.

On to `Cc1cc(Oc2snc(-c3ccccc3)c2Br)c(Cl)cc1N` [4-[(4-bromo-3-phenylisothiazol-5-yl)oxy]-5-chloro-2-methylaniline], for which the chromatographic logP turned out to be 4.41. Still for that read-out and setting: next, `CCN(C)/C=N/c1cc(C)c(Oc2snc(Cc3ccc(Cl)cc3)c2C#N)cc1C` [No. 27, N′-(4-{[3-(4-chlorobenzyl)-4-cyano-1,2-thiazol-5-yl]oxy}-2,5-dimethylphenyl)-N-ethyl-N-methylimidoformamide]: 2.39; `CCCN(C)/C=N/c1cc(C)c(Oc2snc(C(C)(C)C)c2C#N)cc1C` [No. 4, N′-{4-[(3-tert-butyl-4-cyano-1,2-thiazol-5-yl)oxy]-2,5-dimethylphenyl}-N-methyl-N-propylimidoformamide]: 2.19.

Staying with this data set, now noted: reversed-phase HPLC column (C18); LC-MS, acidic range pH 2.7, 0.1% aqueous formic acid and acetonitrile; read-out: logP(HCO2H).
As to `CC(C)(C)c1nsc(N)c1C#N` [5-amino-3-tert-butylisothiazole-4-carbonitrile], the chromatographic logP was 2.4. Regarding `Nc1snc(-c2ccccc2)c1Cl` [4-chloro-3-phenylisothiazol-5-amine], the chromatographic logP worked out at 2.21.

As to `Clc1snc(-c2ccccc2)c1Br` [4-bromo-5-chloro-3-phenylisothiazole], the chromatographic logP is 4.41. Regarding `N#Cc1c(Cc2ccc(Cl)cc2)nsc1N` [5-amino-3-(4-chlorobenzyl)isothiazole-4-carbonitrile], the chromatographic logP was 2.4.

As for `Nc1snc(-c2ccccc2)c1Br` [4-bromo-3-phenylisothiazol-5-amine], the chromatographic logP was found to be 2.26.

The record behind these values is patent publication US8138211B2, “Isothiazolyloxyphenylamidines and their use as fungicides” (Bayer Cropscience AG, priority 2009, dated 2012).
